Consider one compound from patent US8759328B2, “Once-a-week administration of 25-hydroxy vitamin D3 to sustain elevated steady-state pharmacokinetic blood concentration” (Wisconsin Alumni Research Foundation, priority 2008, dated 2014).

For data set [1] the following is noted: cited from earlier work.
Data set [2] is described as follows: Serum total calcium after 1×/month oral administration in vitamin D-deficient rats. Format: in vivo, rat. From the text: FIG. 4 is a bar graph showing no increase in serum Ca concentration levels above the normal range occurring after exemplary 1×/month oral administration of 25-(OH)D3 in vitamin D-deficient rats. The rats were male, Sprague-Dawley rats (weanlings, n=30) received from a commercial supplier. The animals were placed in rooms that lacked light emissions in the UV range and fed diets lacking vitamin D. At 10 weeks of age, the rats were randomly assigned to 6 groups (n=5/group), bled (0 d) and then orally dosed 1× every 28 days with vehicle (5% ethanol in Neobee oil) or 25-(OH)D3 dissolved in ethanol and Neobee oil, whereby blood was again collected 4 hr, 24 hr, and 1, 2, 3 and 4 weeks after each single, oral dose was administered. Total calcium concentrations were assessed in the serum using absorption spectrometry. FIG. 4 includes data out to 10 months of dosing.
The rats were male, Sprague-Dawley rats (weanlings, n=4-6/group) received from a commercial supplier. […] Blood was collected at the times indicated in the graph and total calcium concentrations were assessed in the serum using atomic absorption spectrometry or a clinical analyzer (Pentra 400, Horiba ABX Diagnostics—France).

Data set [3] can be described thus: Serum total calcium after 1×/weekly oral administration in vitamin D deficient rats. Format: in vivo, rat. Conditions: FIG. 10. The source says: The rats were male, Sprague-Dawley rats (weanlings, n=4-6/group) received from a commercial supplier. The animals were placed in rooms that lacked light emissions in the UV range. The animals were fed diets lacking any vitamin D. At 10 weeks of age the animals were randomly assigned to 3 groups, and then orally dosed 1× every 7 days with vehicle (5% ethanol in Neobee oil) or 25(OH)D3 dissolved in ethanol and Neobee oil. Blood was collected at the times indicated in the graph and total calcium concentrations were assessed in the serum using atomic absorption spectrometry or a clinical analyzer (Pentra 400, Horiba ABX Diagnostics—France).

Data set [4] in a line: Serum 25-(OH)D3 (RIA) after 1×/month oral administration in rats with normal vitamin D status. Format: in vivo, rat. The source says: FIG. 1 is a bar graph showing exemplary elevations of serum 25-(OH)D3 levels occurring after 1×/month oral administration of 25-(OH)D3 at 9 and 100 mcg/kgBW in rats with normal vitamin D status. The rats were male, Sprague-Dawley rats (9 weeks of age, n=15) received from a commercial supplier, and the animals were placed on a purified diet containing 0.47% calcium and allowed to acclimate for one week. After one week the animals were randomly assigned to 3 groups, bled (0 d), and then orally dosed 1× every 28 days with vehicle (5% ethanol in Neobee oil) or 25-(OH)D3 dissolved in ethanol and Neobee oil. Blood was again collected 4 hr, 24 hr, and 1, 2, 3 and 4 weeks after each single, oral dose was administered, and, serum 25-(OH)D3 concentrations were assessed using a commercially available RIA kit (DiaSorin of Stillwater, Minn.). FIG. 1 also contains data taken after 6 months of dosing.
FIG. 5 is a bar graph illustrating the increases in serum 25(OH)D3 occurring after 1×/monthly oral administration of 25(OH)D3 at 1000 and 3000 mcg/kg body weight in rats with normal vitamin D status. The rats were male, Sprague-Dawley rats (9 weeks of age, n=4-6 animals/group) received from a commercial supplier. […] Blood was collected at the times indicated in the graph, and serum 25(OH)D3 concentrations were assessed using a commercially available RIA kit (DiaSorin of Stillwater, Minn.).

Data set [5] in a line: Serum 25(OH)D3 (RIA) after 1×/weekly oral administration in vitamin D deficient rats. Format: in vivo, rat. Conditions: FIG. 9, 1×/weekly oral, 100, 1000 and 3000 mcg/kg body weight. From the text:
FIG. 9 is a bar graph illustrating the increases in serum 25(OH)D3 occurring after 1×/weekly oral administration of 25(OH)D3 at 100, 1000 and 3000 mcg/kg body weight in vitamin D deficient rats. The rats were male, Sprague-Dawley rats (weanlings, n=4-6/group) received from a commercial supplier. The animals were placed in rooms that lacked light emissions in the UV range. The animals were fed diets lacking any vitamin D, whereby at 10 weeks of age the animals were randomly assigned to 3 groups and then orally dosed 1× every 7 days with vehicle (5% ethanol in Neobee oil) or 25(OH)D3 dissolved in ethanol and Neobee oil. Blood was collected at the times indicated in the graph and serum 25(OH)D3 concentrations were assessed using a commercially available RIA kit (DiaSorin of Stillwater, Minn.).

A further data set is described as follows: Solubility of 25-(OH)D3. Format: physicochemical. From the text: 25-(OH)D3 can exist in its free form or as a monohydrate. 25-(OH)D3 monohydrate is crystalline.
The nature of data set [6]: Serum total calcium after 1×/month oral administration in rats with normal vitamin D status. Format: in vivo, rat. The source says: FIG. 2 is a bar graph showing no change in serum calcium occurring after […] oral administration of 25-(OH)D3 in rats with normal vitamin D status. The rats were male, Sprague-Dawley rats (9 weeks of age, n=15) received from a commercial supplier. The animals were placed on a purified diet containing 0.47% calcium and allowed to acclimate for one week. After one week the animals were randomly assigned to 3 groups, bled (0 d), and then orally dosed 1× every […] with vehicle (5% ethanol in Neobee oil) or 25-(OH)D3 dissolved in ethanol and Neobee oil. Blood was again collected 4 hr, 24 h, and 1, 2, 3 and 4 weeks after each single, oral dose was administered, and total calcium concentrations were assessed in the serum using atomic absorption spectrometry. FIG. 2 also contains data taken after the 6th and 10th monthly dose.
The rats were male, Sprague-Dawley rats (9 weeks of age, n=4-6 animals/group) received from a commercial supplier. The animals were placed on a purified diet containing 0.47% calcium and allowed to acclimate for one week. […] Total calcium concentrations were assessed in the serum using atomic absorption spectrometry or a clinical analyzer (Pentra 400, Horiba ABX Diagnostics—France).

Data set [7] can be described thus: Serum 25-(OH)D3 (RIA) after 1×/month oral administration in vitamin D deficient rats. Format: in vivo, rat. The source says: FIG. 3 is a bar graph showing exemplary elevations of serum 25-(OH)D3 levels occurring after 1×/month oral administration of 25-(OH)D3 at 1, 3, 9, 30 and 100 mcg/kgBW in vitamin D deficient rats. The rats were male, Sprague-Dawley rats (weanlings, n=30) received from a commercial supplier. The animals were placed in rooms that lacked light emissions in the UV range and were fed diets lacking any vitamin D, whereby at 10 weeks of age the animals were randomly assigned to 6 groups (n=5/group), bled (0 d), and then orally dosed 1× every 28 days with vehicle (5% ethanol in Neobee oil) or 25-(OH)D3 dissolved in ethanol and Neobee oil. Blood was again collected 4 hr, 24 hr, and 1, 2, 3 and 4 weeks after each single, oral dose was administered, and serum 25-(OH)D3 concentrations were assessed using a commercially available RIA kit (DiaSorin of Stillwater, Minn.). FIG. 3 includes data taken after the 6th and 10th monthly dose.
FIG. 7 is a bar graph illustrating the increases in serum 25(OH)D3 occurring after 1×/monthly oral administration of 25(OH)D3 at 1000 and 3000 mcg/kg body weight in vitamin D deficient rats. […] Blood was collected at the times indicated in the graph and serum 25(OH)D3 concentrations were assessed using a commercially available RIA kit (DiaSorin of Stillwater, Minn.).

For data set [8] the following is noted: rat, in vivo; cited from earlier work.

SMILES strings stand for the structures.

In the case of `C=C1CC[C@H](O)C/C1=C/C=C1\CCCC2(C)[C@@H]([C@H](C)CCCC(C)(C)O)CC[C@@H]12` (stereo partly drawn) [25-(OH)D3, 25-hydroxy-vitamin D3], the “time to peak 25-(OH)D3 concentrations in the serum” value in data set [1] (administered orally) is “about 4 hours”. Also, in [1] (human, in vivo), the “lifetime in the body” value was 25 to 32 days. Besides, the fraction absorbed in data set [1] (orally administered, in man) is 62-77%. The half-life in data set [1] (orally administered) was 12 to 23 days. The “serum Ca concentration (hypercalcemia)” value in data set [2] (FIG. 4, 1×/month oral, vitamin D-deficient rats, up to 10 months) is given as “do not cause hypercalcemia”. The serum calcium entry was “no increase in serum calcium outside the normal range” in data set [2] (FIG. 8, 1×/monthly oral, 1000 and 3000 mcg/kg body weight, vitamin D deficient rats); “no increase in serum calcium outside the normal range” in data set [3]; “no increase in serum calcium outside the normal range” in [6] (FIG. 6, 1×/monthly oral, 1000 and 3000 mcg/kg body weight). Also, the “serum 25-(OH)D3 levels” value is on record as “values return to baseline 4 weeks after the dose is administered” in data set [4] (FIG. 1, 1×/month oral, 9 and 100 mcg/kgBW, rats with normal vitamin D status, up to 6 months of dosing); “values return to baseline 4 weeks after the dose is administered” in [7] (FIG. 3, 1×/month oral, 1, 3, 9, 30 and 100 mcg/kgBW, vitamin D deficient rats, up to 10th monthly dose). The “serum 25(OH)D3 circulating levels” value is listed as “circulating levels higher than normal” in data set [4] (FIG. 5, 1×/monthly oral, 1000 and 3000 mcg/kg body weight, D-sufficient rats); “circulating levels higher than normal” in [7] (FIG. 7, 1×/monthly oral, 1000 and 3000 mcg/kg body weight, D-deficient rats). Further, in [5], the “blood levels of 25(OH)D3” value is “above the normal range without the large fluctuations”. Also, the solubility entry in “Solubility of 25-(OH)D3” (organic solvents) is given as “soluble”; in the data set “Solubility of 25-(OH)D3” (water) it was “relatively insoluble”. Moreover, the “serum calcium (hypercalcemia)” value in data set [6] (FIG. 2, 1×/month oral, up to 10 months) is reported as “do not cause hypercalcemia”. Besides, the “25-(OH)D3 levels with risk of causing a mild vitamin D intoxication” value in data set [8] is recorded as “above 500 ng/ml”. For the same compound, the “blood level concentration at which toxicity becomes a concern” value in data set [8] was “greater than 450 ng/ml”.
